In PubChem BioAssay (NCI):
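Growth conditions: 96-well plates. Treatment: test compound, 48 hours, 5 concentrations. Analysis: linear interpolation between bracketing concentrations; unreached endpoints set to highest concentration. GI50: concentration for 50% inhibition of growth. TGI denotes the concentration required for complete inhibition of growth.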

Assays:
Test in all cases: NCI-60 cell line screen, 48 h
[1] = system: K-562 leukemia
[2] = system: SK-MEL-28 melanoma
[3] = system: TK-10 renal
[4] = system: SR leukemia
[5] = system: MALME-3M melanoma
[6] = system: EKVX NSCLC
[7] = system: 786-0 renal
[8] = system: UO-31 renal
[9] = system: CCRF-CEM leukemia
[10] = system: NCI/ADR-RES ovarian

| SMILES | TGI [1] | TGI [2] | TGI [3] | TGI [4] | TGI [5] | TGI [6] | TGI [7] | TGI [8] | TGI [9] | GI50 [1] | GI50 [2] | GI50 [10] | TGI [10] | GI50 [4] | GI50 [5] | GI50 [6] | GI50 [7] | GI50 [8] | GI50 [9] | GI50 [3] |
| --- | --- | --- | --- | --- | --- | --- | --- | --- | --- | --- | --- | --- | --- | --- | --- | --- | --- | --- | --- | --- |
| O=c1cc(-c2ccccc2)oc2cc(O)cc(O)c12 | 63.1 µM | 43.5 µM | 72.9 µM | 65.6 µM | 51.8 µM | 72 µM | 60.1 µM | 43.5 µM | 59.6 µM |  |  |  |  |  |  |  |  |  |  |  |
| CCCCCCCCCCCCCCCC[N+](C)(CCO)Cc1cnc[nH]1 (centres undefined) | > 100 µM | 9.78 µM |  | > 100 µM | 6.54 µM | 6.63 µM | 2.84 µM | > 100 µM |  | 1.57 µM | 2.7 µM | 14.7 µM | 42.4 µM | 1.97 µM | 2.01 µM | 1.47 µM | 0.852 µM | 23 µM |  |  |
| O=S(=O)(SCc1ccccc1)C(c1ccccc1)c1ccccc1 | > 100 µM | > 100 µM | > 100 µM | 74.6 µM | > 100 µM | > 100 µM | > 100 µM | > 100 µM | > 100 µM |  |  |  |  |  |  |  |  |  |  |  |
| COc1ccc(C[C@@H]2NC[C@@H](O)[C@@H]2OC(C)=O)cc1 | > 100 µM | 0.127 µM | 0.254 µM | > 100 µM |  |  |  |  |  | 1.1 µM |  |  |  | 6.9 µM | 3.97 µM | 1.55 µM | 9 µM | 44.6 µM | 4.35 µM |  |
| CN(C)CCSc1cccc(-c2cc(-c3cccc(SCCN(C)C)c3)nc(SCCN(C)C)n2)c1 | 3.1 µM | 3.4 µM | 9.65 µM | 4.49 µM | 3.38 µM | 5.24 µM | 20.9 µM | 27.9 µM | 4.8 µM |  |  |  |  |  |  |  |  |  |  |  |
| COc1ccc(C(=O)C(c2ccc(OC)cc2)C2OC(=O)C(Cl)=C2Cl)cc1 (centres undefined) | > 100 µM | > 100 µM | > 100 µM | > 100 µM | > 100 µM | > 100 µM | > 100 µM | > 100 µM | > 100 µM |  |  |  |  |  |  |  |  |  |  |  |
| CC#C/C(=N\OC[C@H]1COCCN1)c1ccc2ncnc(Nc3ccc(OCc4cccc(F)c4)c(Cl)c3)c2c1 |  | 3.34 µM | 1.48 µM | 5.34 µM |  | 2.44 µM | 3.07 µM | 2.41 µM | 3.85 µM |  | 1.77 µM | 1.27 µM | 2.87 µM | 1.68 µM |  | 0.343 µM | 1.52 µM | 1.13 µM | 1.73 µM | 0.0335 µM |
| COc1ccc(N/N=C(\CCN(C)C)c2ccccc2)cc1 | 7.31 µM | 7.83 µM | 6.02 µM | 15.6 µM | 35.2 µM | 56.9 µM | 12.4 µM | 3.99 µM | 23.5 µM |  |  |  |  |  |  |  |  |  |  |  |
| Cc1cc(Nc2c3ccccc3nc3ccccc23)ccc1NS(C)(=O)=O | 14.5 µM | 19.5 µM | 11.7 µM | 5.91 µM | 10.3 µM |  | 16.7 µM | 8.76 µM | 20.3 µM | 3.59 µM | 5.4 µM | 5.63 µM | 52.5 µM | 2.11 µM | 3.4 µM |  | 4.73 µM | 1.9 µM | 3.25 µM | 3.23 µM |
| Clc1ccc(C2=Nn3c(nnc3-c3cc(Cl)cc(Cl)c3Cl)SC2)cc1 | 35.1 µM | > 100 µM | 35.9 µM | 7.34 µM | 29.2 µM | > 100 µM | 38 µM |  | 26 µM | 3.4 µM | > 100 µM | 16.6 µM | > 100 µM | 3.1 µM | 10.5 µM | 45.1 µM | 17.1 µM |  | 10.7 µM | 15.9 µM |
| O=C(Nc1cccc(Cc2cccc(NC(=O)c3ccccc3)c2)c1)c1ccccc1 | > 100 µM | > 100 µM | > 100 µM | > 100 µM | 99.7 µM | > 100 µM | > 100 µM | 66.3 µM | > 100 µM |  |  |  |  |  |  |  |  |  |  |  |
| CN(CC#N)C1CCCC[C@H]1O (some centres undefined) | > 100 µM | > 100 µM | > 100 µM | > 100 µM | > 100 µM | > 100 µM | > 100 µM | > 100 µM | > 100 µM |  |  |  |  |  |  |  |  |  |  |  |
| Cc1ccc(C2NC(=O)c3ccccc3N2)s1 (centres undefined) | > 100 µM | > 100 µM | > 100 µM | > 100 µM | > 100 µM | > 100 µM | > 100 µM | > 100 µM | > 100 µM |  |  |  |  |  |  |  |  |  |  |  |
| CN1CCN(c2ccc(Nc3nc(N)c(C(=O)c4ccc5c(c4)OCCO5)s3)cc2)CC1 | 18.3 µM | 10.5 µM | 10.1 µM | 12.7 µM | 8.34 µM |  | 8.23 µM | 8.02 µM | 23.9 µM | 2.43 µM | 4.6 µM | 7.54 µM | > 25 µM | 2.02 µM | 2.72 µM |  | 3.44 µM | 2.6 µM | 4.66 µM | 3.14 µM |
